Patent US20030138476A1, “Use of glutamate and/or a glutamate precursor for the preparation of a nutritional or pharmaceutical preparation for the treatment or prevention of hyperpermeability or undesired permeability of the intestinal wall” (priority 2000, published 2003)

Assays:
HT-29CL.19A cells [1] = experiment: Transepithelial (apical to basolateral) HRP permeability of HT-29CL.19A monolayers, hyperpermeability induced by PDB; type: cell-based, human; settings: PDB 1 mmol/l
Source text: The macromolecular permeability of the intestinal epithelium is controlled by the passage through intercellular tight junctions in the paracellular channels. Opening of these tight junctions is controlled by the epithelial cells in response to various intercellular mediators, such as Ca, cyclic AMP, G proteins and protein kinase c. The human intestinal cell line HT-29CL.19A is becoming increasingly more important for studying this paracellular permeability in vitro. See also the abovementioned article in J. Parenteral Enteral Nutrition, that is incorporated herein by reference.
For the present examples, confluent monolayers of HT-29CL19A cells were cultured on permeability filters. […] The transepithelial permeability from apical to basolateral was determined for horseradish peroxidase (HRP) with the aid of an enzyme assay. Phorbol 12,13-dibutyrate (PDB, 1 mmol/l) was used to increase the permeability. […] All agents were added to the apical compartment.

HT-29CL.19A cells [2] = settings: Kouznetsova et al. J. Parenteral Enteral Nutrition 23 (1999) 136-139; cited from earlier work
[3] = cited from earlier work

What does the source list for `N[C@H](C(=O)O)[C@@H]1CC(Cl)=NO1` [Acivicin, acivicin]?
effect of acivicin on the reduction in PDB-induced hyperpermeability in the presence of glutamate (HT-29CL.19A cells [1]; in the presence of glutamate): This effect did not occur; effect of acivicin on the glutamine-mediated reduction in PDB-induced hyperpermeability (HT-29CL.19A cells [1]; in the presence of glutamine): prevented the glutamine-mediated reduction in the hyperpermeability

Which results are given for `N[C@@H](CCC(=O)O)C(=O)O` [Glutamate, glutamate]?
effect on PDB-induced hyperpermeability (HRP flux) (HT-29CL.19A cells [1]; glutamate 0.6 mmol/l, apical, p<0.001): had the same effect; effect on PDB-induced hyperpermeability (HRP flux) (HT-29CL.19A cells [1]; glutamate 0.6 mmol/l, apical, p<0.001, listed as glutamate): reduces the macromolecular hyperpermeability

Which results are given for `NC(=O)CC[C@H](N)C(=O)O` [Glutamine, glutamine]?
effect on PDB-induced hyperpermeability (HRP flux) (HT-29CL.19A cells [1]; glutamine added to apical compartment): reduces this hyperpermeability appreciably; effect on macromolecular hyperpermeability of intestinal cells induced by phorbol 12,13-dibutyrate (HT-29CL.19A cells [2]): able to lower the macromolecular hyperpermeability; solubility [3]: poor solubility

Which “increase of HRP flux compared with the control” value (HT-29CL.19A cells [1]; apical, after 150-279 min stimulation, p<0.001) does the source give for `CCCC(=O)O[C@@H]1[C@@H](C)[C@@]2(O)[C@@H](C=C(CO)C[C@]3(O)C(=O)C(C)=C[C@@H]23)[C@@H]2C(C)(C)[C@]12OC(=O)CCC` [PDB, Phorbol 12,13-dibutyrate] here?
The value was 3 fold.
